Assay results published in PMC6811774, “Potent, selective, and subunit‐dependent activation of TRPC5 channels by a xanthine derivative” (British Journal of Pharmacology, 2019).

Target: T1, TRPC5-SYFP2 (TRPC5:C5 channels) (Homo sapiens, UniProt Q9UL62)
T1 construct: expressed in transfected cells
T1 sequence (Q9UL62 1-973): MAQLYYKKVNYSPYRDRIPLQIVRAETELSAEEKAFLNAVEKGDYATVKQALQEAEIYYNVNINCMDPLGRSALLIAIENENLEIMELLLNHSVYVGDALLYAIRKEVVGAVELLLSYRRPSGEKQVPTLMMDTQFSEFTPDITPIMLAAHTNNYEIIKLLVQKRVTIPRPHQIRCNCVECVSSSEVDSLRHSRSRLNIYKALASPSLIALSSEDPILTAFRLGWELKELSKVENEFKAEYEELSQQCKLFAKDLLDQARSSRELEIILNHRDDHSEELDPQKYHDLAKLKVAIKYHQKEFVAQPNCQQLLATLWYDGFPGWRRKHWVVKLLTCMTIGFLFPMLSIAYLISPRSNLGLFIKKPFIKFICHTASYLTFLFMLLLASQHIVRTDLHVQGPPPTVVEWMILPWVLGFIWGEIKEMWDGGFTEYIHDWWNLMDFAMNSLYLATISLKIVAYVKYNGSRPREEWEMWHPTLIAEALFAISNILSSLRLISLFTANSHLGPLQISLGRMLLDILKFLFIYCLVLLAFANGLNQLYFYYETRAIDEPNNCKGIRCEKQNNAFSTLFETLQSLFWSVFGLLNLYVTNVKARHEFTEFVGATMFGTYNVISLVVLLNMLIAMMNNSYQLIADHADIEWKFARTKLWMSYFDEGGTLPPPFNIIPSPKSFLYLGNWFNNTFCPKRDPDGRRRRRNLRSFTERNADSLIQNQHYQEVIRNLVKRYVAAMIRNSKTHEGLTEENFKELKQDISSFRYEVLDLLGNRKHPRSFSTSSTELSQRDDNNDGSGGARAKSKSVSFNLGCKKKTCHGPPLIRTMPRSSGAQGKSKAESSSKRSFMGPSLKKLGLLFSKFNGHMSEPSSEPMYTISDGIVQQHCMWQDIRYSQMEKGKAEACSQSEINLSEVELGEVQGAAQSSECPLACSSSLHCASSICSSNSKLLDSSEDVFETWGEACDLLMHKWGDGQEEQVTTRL
Assay: [Ca2+]i measurement (Fura-2, FlexStation) in (Tet+) HEK T-REx cells expressing hTRPC5-SYFP2
Format: cell-based
Source text: To facilitate cloning of TRPC5‐SYFP2 and TRPC4‐SYFP2, a pcDNA™4/TO expression vector (ThermoFisher Scientific, Waltham, MA, USA), into which a four amino acid linker (ASAS) flanked by AgeI and SacII restriction sites had been introduced between EcoRI and XhoI restriction sites, was used (Naylor et al., 2016). Human TRPC4β was inserted between BamHI and AgeI restriction sites as described previously (Ludlow et al., 2017). Human TRPC5 (forward primer: 5′ GCTTGGTACCGCCACCATG 3′ and reverse primer: 5′ […] 3′) was inserted upstream of the linker between KpnI and AgeI restriction sites using hTRPC5/pcDNA™4/TO (Zeng et al., 2004) as a PCR template. Both constructs contained an N‐terminal Kozak sequence. SYFP2 was inserted downstream of the linker between SacII and XbaI restriction sites using pSYFP2‐C1 as a PCR template (forward primer, 5′ […] 3′; reverse primer, 5′ […] 3′). pSYFP2‐C1 was a gift from Dorus Gadella (Addgene plasmid #22878; http://n2t.net/addgene:22878; RRID:Addgene_22878; Kremers, Goedhart, van Munster, & Gadella, 2006). Plasmids were sequenced to verify identity.
HEK T‐REx™ cell line was transfected with TRPC5‐SYFP2 or TRPC4‐SYFP2 using FuGENE® HD transfection reagent. After 48 hr, cells were put under antibiotic selection using 400 μg·ml^−1 zeocin and 10 μg·ml^−1 blasticidin S (Invivogen, San Diego, California, USA). Medium changes were carried out regularly to remove dead cells. HEK T‐REx cells expressing tetracycline‐inducible human TRPC5, TRPC4–C1, and TRPC5–C1 were created as described previously (Akbulut et al., 2015; Ludlow et al., 2017; Rubaiy, Ludlow, Henrot, et al., 2017). TRPC5–C1 and TRPC4–C1 concatemers allow expression of functional channels with defined 2:2 stoichiometry that display ion permeability and current–voltage relationships distinct from those of homomeric TRPC4:C4 or TRPC5:C5 channels and consistent with those obtained upon co‐expression of TRPC1 with TRPC4 or TRPC5 (Ludlow et al., 2017; Rubaiy, Ludlow, Bon, & Beech, 2017; Rubaiy, Ludlow, Henrot, et al., 2017). Cells were cultured in DMEM‐F12 GlutaMAX (Invitrogen, Paisley, UK) containing 10% FBS (Sigma‐Aldrich, Gillingham, UK), with the addition of blasticidin (10 μg·ml^−1) and zeocin (400 μg·ml^−1) to maintain the stable incorporation of the tetracycline repressor and the channel of interest, respectively. Expression of proteins was induced by the addition of tetracycline (1 μg·ml^−1, 24 hr). Cells were maintained in a humidified incubator with 5% CO2 at 37°C. HEK 293 cells stably expressing tetracycline‐regulated human http://www.guidetopharmacology.org/GRAC/ObjectDisplayForward?objectId=494 were prepared similarly and have also been described previously (McHugh, Flemming, Xu, Perraud, & Beech, 2003). For experiments using transient co‐expression of TRPC1 and TRPC5, HEK cells at 40–60% confluency were transfected with pIRES2‐AcGFP1 and pIRES2‐DsRed‐Express2 plasmids containing human TRPC1 and TRPC5, respectively, using Lipofectamine 3000 (ThermoFisher Scientific, Yokohama, Japan). All experiments using transient expression were performed within 48 hr after transfection. A498 cells were cultured in Minimum Essential Medium containing Earle's salts (ThermoFisher Scientific, Loughborough, UK), supplemented with 10% FBS and penicillin–streptomycin (100 units per ml^−1, 100 μg·ml^−1; ThermoFisher Scientific, Loughborough, UK). CHO cells stably expressing http://www.guidetopharmacology.org/GRAC/ObjectDisplayForward?objectId=510 were maintained in Ham's Nutrient Mixture F12 (ThermoFisher Scientific, Loughborough, UK) supplemented with 10% FBS, penicillin–streptomycin, and 1 mg·ml^−1 G418 (InvivoGen, San Diego, California, USA). For experiments using hTRPC3 and hTRPC6, WT HEK 293 cells were transfected with hTRPC3 (Naylor et al., 2016) or hTRPC6 (cloned into pcDNA3) using jetPRIME® transfection reagent (VWR, Lutterworth, UK). Cells were assayed 48 hr after transfection. […]

Compound: Cn1c(=O)n(CCCO)c(=O)c2c1nc(Oc1ccc(Cl)c(OC(F)(F)F)c1)n2Cc1ccc(Cl)cc1 [AM237]
- Hill slope, suppression of EA response (10 nM EA): -2.2
- Effect on S1P-mediated [Ca2+]i response (0.3 to 1 nM AM237, 30 min pre-incubation, 10 μM S1P): no significant effect
- Effect on [Ca2+]i in the absence of extracellular Ca2+ (0.3–300 nM, Ca2+-free SBS with 0.4 mM EGTA): did not increase
- Effect on S1P-mediated activation of TRPC5:C5 (3–300 nM AM237, 30 min pre-incubation, 10 μM S1P): significantly increased
- IC50 (30 min pre-incubation, then 10 nM EA, read-out: Relative IC50, suppression of EA-mediated [Ca2+]i response): 13 nM
- EC50 (Control (DMSO pretreatment), competition experiment, read-out: EC50, activation): 10 nM
- Effect on S1P response upon simultaneous addition (co-application of 10 μM S1P and 0.3–300 nM AM237): increases of the responses to S1P
- Hill slope, activation (hTRPC5-SYFP2 concentration–response curve): 1.4
